Key:
AMARE [1] = assay: Pre-emergence herbicidal action against AMARE; type: in vivo, Amaranthus retroflexus
How it was run: (§1)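 Sandy loam pots, seeds covered with soil, then surface-treated with WP or EC formulations at 600–800 l/ha water plus 0.2% wetting agent. Greenhouse, 3 weeks. Percent damage vs untreated controls.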

ALOMY [2] = assay: Post-emergence herbicidal action against ALOMY; type: in vivo, Alopecurus myosuroides; details: dosage 20 g/ha, visual assessment about 3 weeks after treatment vs untreated controls
How it was run: (§2)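 Visual % rating (0% = as untreated, 100% = dead) ~3 wk after spraying one-leaf-stage plants grown in sandy loam; WP/EC in water at 600–800 l/ha, 0.2% wetting agent.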

ALOMY [3] = assay: Pre-emergence herbicidal action against ALOMY; type: in vivo, Alopecurus myosuroides; details: 80 g/ha, pre-emergence, scored visually after 3 weeks vs untreated controls (100% = plants have died, 0% = like control plants)
How it was run: as §1

ABUTH [4] = assay: Post-emergence herbicidal action against ABUTH; type: in vivo, Abutilon theophrasti; details: visual assessment about 3 weeks after treatment vs untreated controls
How it was run: as §2

PHBPU [5] = assay: Post-emergence herbicidal action against PHBPU; type: in vivo, Pharbitis purpurea
How it was run: as §2

MATIN [6] = assay: Pre-emergence herbicidal action against MATIN; type: in vivo, Matricaria inodora
How it was run: as §1

VIOTR [7] = assay: Post-emergence herbicidal action against VIOTR; type: in vivo, Viola tricolor
How it was run: as §2

HORMU [8] = assay: Post-emergence herbicidal action against HORMU; type: in vivo, Hordeum murinum; details: dosage 20 g/ha
How it was run: as §2

HORMU [9] = assay: Pre-emergence herbicidal action against HORMU; type: in vivo, Hordeum murinum; details: 80 g/ha, pre-emergence
How it was run: as §1

DIGSA [10] = assay: Post-emergence herbicidal action against DIGSA; type: in vivo, Digitaria sanguinalis
How it was run: as §2

LOLRI = assay: Pre-emergence herbicidal action against LOLRI; type: in vivo, Lolium rigidum; details: 80 g/ha
How it was run: as §1

AVEFA [11] = assay: Pre-emergence herbicidal action against AVEFA; type: in vivo, Avena fatua; details: 80 g/ha, pre-emergence
How it was run: as §1

ABUTH [12] = assay: Pre-emergence herbicidal action against ABUTH; type: in vivo, Abutilon theophrasti
How it was run: as §1

PHBPU [13] = assay: Pre-emergence herbicidal action against PHBPU; type: in vivo, Pharbitis purpurea; details: dosage 80 g/ha
How it was run: as §1

VERPE = assay: Post-emergence herbicidal action against VERPE; type: in vivo, Veronica persica; details: 20 g/ha
How it was run: as §2

ECHCG [14] = assay: Post-emergence herbicidal action against ECHCG; type: in vivo, Echinochloa crus-galli
How it was run: as §2

DIGSA [15] = assay: Pre-emergence herbicidal action against DIGSA; type: in vivo, Digitaria sanguinalis
How it was run: as §1

POLCO = assay: Pre-emergence herbicidal action against POLCO; type: in vivo, Polygonum convolvulus; details: dosage 80 g/ha
How it was run: as §1

SETVI [16] = assay: Post-emergence herbicidal action against SETVI; type: in vivo, Setaria viridis
How it was run: as §2

VIOTR [17] = assay: Pre-emergence herbicidal action against VIOTR; type: in vivo, Viola tricolor
How it was run: as §1

AMARE [18] = assay: Post-emergence herbicidal action against AMARE; type: in vivo, Amaranthus retroflexus; details: 20 g/ha, visual assessment about 3 weeks after treatment, 100% = plants have died, 0% = like control plants
How it was run: as §2

SETVI [19] = assay: Pre-emergence herbicidal action against SETVI; type: in vivo, Setaria viridis; details: dosage 80 g/ha
How it was run: as §1

MATIN [20] = assay: Post-emergence herbicidal action against MATIN; type: in vivo, Matricaria inodora
How it was run: as §2

STEME [21] = assay: Pre-emergence herbicidal action against STEME; type: in vivo, Stellaria media
How it was run: as §1

ECHCG [22] = assay: Pre-emergence herbicidal action against ECHCG; type: in vivo, Echinochloa crus-galli
How it was run: as §1

AVEFA [23] = assay: Post-emergence herbicidal action against AVEFA; type: in vivo, Avena fatua; details: visual assessment about 3 weeks after treatment, 100% = plants have died, 0% = like control plants
How it was run: as §2

STEME [24] = assay: Post-emergence herbicidal action against STEME; type: in vivo, Stellaria media
How it was run: as §2

[25] = 80 g/ha, scored visually after 3 weeks vs untreated controls (100% = plants have died, 0% = like control plants)

CCNC(=O)c1c(C(F)(F)F)ccc(C(=O)Nc2nnco2)c1Cl [Example 5-117]
80%: Post-emergence action against ALOMY in % (ALOMY [2]) | Post-emergence action against ABUTH in % (ABUTH [4]; dosage 5 g/ha) | Post-emergence action against PHBPU in % (PHBPU [5]; dosage 5 g/ha) | Post-emergence action against HORMU in % (HORMU [8]) | Pre-emergence action against HORMU in % (HORMU [9]) | Pre-emergence action against LOLRI in % (LOLRI) | Post-emergence action against VERPE in % (VERPE) | Post-emergence action against ECHCG in % (ECHCG [14]; dosage 5 g/ha) | Post-emergence action against ECHCG in % (ECHCG [14]; dosage 20 g/ha) | Pre-emergence action against POLCO in % (POLCO) | Post-emergence action against MATIN in % (MATIN [20]; dosage 5 g/ha) | Pre-emergence action against ECHCG in % (ECHCG [22]; 20 g/ha) | Post-emergence action at 5 g/ha against AVEFA in % (AVEFA [23]; 5 g/ha)
100%: Pre-emergence action against MATIN in % (MATIN [6]; dosage 80 g/ha) | Post-emergence action against VIOTR in % (VIOTR [7]; 20 g/ha) | Pre-emergence action against ABUTH (herbicidal activity) (ABUTH [12]; [25]) | Pre-emergence action against ABUTH (herbicidal activity in percent) (ABUTH [12]; dosage 20 g/ha, scored visually after 3 weeks vs untreated controls, 100% = plants have died, 0% = like control plants) | Pre-emergence action against PHBPU in % (PHBPU [13]) | Pre-emergence action against DIGSA in % (DIGSA [15]; dosage 20 g/ha) | Pre-emergence action against DIGSA in % (DIGSA [15]; dosage 80 g/ha) | Post-emergence action against SETVI in % (SETVI [16]; dosage 5 g/ha) | Post-emergence action against SETVI in % (SETVI [16]; dosage 20 g/ha) | Pre-emergence action against VIOTR in % (VIOTR [17]; dosage 20 g/ha) | Pre-emergence action against VIOTR in % (VIOTR [17]; dosage 80 g/ha) | Post-emergence action at 20 g/ha against AMARE in % (AMARE [18]) | Pre-emergence action against ECHCG in % (ECHCG [22]; 80 g/ha) | Post-emergence action against STEME in % (STEME [24]; 20 g/ha) | Post-emergence action against STEME in % (STEME [24]; dosage 5 g/ha)
90%: Pre-emergence action against AMARE in % (AMARE [1]; 20 g/ha, scored visually after 3 weeks vs untreated controls, 100% = plants have died, 0% = like control plants) | Pre-emergence action against AMARE in % (AMARE [1]; [25]) | Pre-emergence action against ALOMY (herbicidal activity) (ALOMY [3]) | Post-emergence action against ABUTH in % (ABUTH [4]; dosage 20 g/ha) | Post-emergence action against PHBPU in % (PHBPU [5]; dosage 20 g/ha) | Pre-emergence action against MATIN in % (MATIN [6]; dosage 20 g/ha) | Post-emergence action against VIOTR in % (VIOTR [7]; 5 g/ha) | Post-emergence action against DIGSA in % (DIGSA [10]; 5 g/ha) | Post-emergence action against DIGSA (DIGSA [10]; 20 g/ha) | Pre-emergence action against AVEFA in % (AVEFA [11]) | Pre-emergence action against SETVI in % (SETVI [19]) | Post-emergence action against MATIN in % (MATIN [20]; dosage 20 g/ha) | Pre-emergence action against STEME in % (STEME [21]; dosage 20 g/ha) | Pre-emergence action against STEME in % (STEME [21]; dosage 80 g/ha) | Post-emergence action at 20 g/ha against AVEFA in % (AVEFA [23]; 20 g/ha)
